# Laboratory results published in US20090054403A1, “Treatment of Post-Traumatic Stress Disorder” (priority 2007, published 2009).
# Assays:
# [1] = system: heart rate, systolic blood pressure; test: Heart rate and tail cuff systolic blood pressure, 21 days daily treatment; assay type: in vivo, SHR; conditions: 1 and 10 mg/kg p.o. for 21 days
# [2] = system: aortic contractile response to phenylephrine; test: Aortic contractile response in vitro to phenylephrine after 21 days treatment; assay type: in vivo, SHR; conditions: 10 mg/kg p.o. daily for 21 days
# [3] = system: dopamine and norepinephrine levels; test: 24 hour time course of tissue catecholamines in SHR after a single oral dose; assay type: in vivo, spontaneously hypertensive rats
# Experimental: The purpose of this study was to determine the 24 hours time course of the effects of nepicastat (10 mg/kg) on dopamine and norepinephrine levels in the mesenteric artery following a single oral dose in spontaneously hypertensive rats. Catecholamine levels were measured at 1, 2, 4, 6, 8, 12, 16, and 24 hours after a single oral administration of either nepicastat (10 mg/kg) or vehicle (dH2O; 10 ml/kg).
# Sixteen-17 week old, male spontaneous hypertensive rats (SHR) rats weighing 300-400 grams were allowed food and water ad libitum. Animals were weighed and randomly assigned, the afternoon before the study, to one of the following treatment groups (n=9 per group): […] of vehicle (10 ml/kg) to be sacrificed at 1, 2, 4, 6, 8, 12, 16, or 24 hours. nepicastat was synthesized as the hydrochloride salt by the Institute of Organic Chemistry, Syntex Discovery Research and obtained from Syntex Central Compound Inventory. nepicastat was dissolved in vehicle (dH2O) to yield an oral dose that could be administered in repeated volumes of 10 ml/kg. All doses of nepicastat were administered as free base equivalents and prepared the morning of administration. Animals were dosed every […] the morning of sacrifice. At 1, 2, 4, 6, 8, 12, 16 and 24 hours following administration, 9 treated animals and 9 vehicle animals were anesthetized with halothane, decapitated, and the left ventricle and mesenteric artery were rapidly harvested and weighed. The mesenteric artery was put in 0.5 ml of 0.4M perchloric acid in a centrifuge tube and the left ventricle put into an empty cryotube. Both tissues were immediately frozen in liquid nitrogen and stored at −70° C. Mesenteric artery catecholamine levels were determined using HPLC with electrochemical detection. At the time of decapitation, plasma samples were taken by draining blood from the carcass into a tube containing heparin, and centrifuging at 4° C.
# Each treatment group was compared to vehicle at each time point. A two way analysis of variance (ANOVA) with effects TRT, HARVEST and their interaction was performed. A one way ANOVA with factor TRT was performed for each harvest time.
# [4] = system: tissue norepinephrine and dopamine levels; test: Tissue catecholamines in iodine-deficient rats after 10 days b.i.d. dosing; assay type: in vivo, Sprague-Dawley rats; conditions: day 10; for dopamine/norepinephrine ratio vs vehicle, mesenteric artery: hydrochloride
# Experimental: Male Sprague-Dawley rats, weighing 180-200 grams, were fed an iodine deficient diet (Purina, 5891C, Lot 1478, 0.066±0.042 mg iodine/kg sample) ad libitum 14 days prior to treatment. Animals were weighed and randomly assigned to one of the following treatment groups (n=12 per group): Nepicastat at 2.0 mg/kg, Nepicastat at 6.2 mg/kg, R, Methimazole at 1 mg/kg, or vehicle at 1 ml/kg. Each group of rats was dosed orally in the evening and the following morning, approximately 12 hours apart, for 10 consecutive days.
# At four hours after the second dose, on day 10, rats were anesthetized with halothane, decapitated, and the cortex, striatum, and mesenteric artery were harvested and weighed. Tissue samples were not harvested from the methimazole groups as they only served as positive controls for determination of thyroid function. The mesenteric artery, cortex, and striatum were immediately placed in 0.4M iced perchloric acid and analyzed for norepinephrine and dopamine levels the same day using HPLC.
# To statistically evaluate changes in T3 and T4 levels, a change from baseline was calculated from the day-3 time point. A non-parametric two-way within subject analysis of variance (ANOVA) was conducted. Also a one-way ANOVA was performed to detect if a significant difference from control occurred. Pairwise analyses between controls and each treatment group were carried out using Fisher's LSD strategy to control the experiment-wise error rate. For statistical analysis of catecholamine levels, a one-way ANOVA with factor DOSE was performed. Pairwise analyses between treated and controls at each dose were carried out using Fisher's LSD strategy to control the experiment-wise error rate.
# [5] = system: mean arterial pressure, renal blood flow; test: Arterial pressure and renal function in anesthetized SHR after iv dosing; assay type: in vivo; conditions: 3.0 mg/kg i.v.
# [6] = system: dopamine/norepinephrine ratio; test: Dose response of tissue dopamine/norepinephrine ratio 6 hours after a single oral dose; assay type: in vivo, Sprague-Dawley rats
# [7] = target: Ca2+/calmodulin protein kinase II; test: Selected enzyme assay; assay type: biochemical
# Experimental: (§1) The activity of nepicastat at twelve selected enzymes and receptors was determined using established assays. Details of individual receptor radioligand binding assays can be found in Wong et al (1993). Binding data were analyzed by iterative curve-fitting to a four parameter logistic equation. Ki values were calculated from IC50 values using the Cheng-Prusoff equation. Enzyme inhibitory activity was expressed as IC50 (concentration required to produce 50% inhibition of enzyme activity). Male SHRs (15-16 weeks old, Charles River, Wilmington, Mass., USA) were used in the study. On the day of the study, animals were weighed and randomly assigned to be dosed with either vehicle (control) or the appropriate dose of nepicastat (3, 10, 30 or 100 mg.kg^−1, po) or (R)-5-Aminomethyl-1-(5,7-difluoro-1,2,3,4-tetrahydronaphth-2-yl)-2,3-dihydro-2-thioxo-1H-imidazole hydrochloride (30 mg.kg^−1, po) three consecutive times, twelve hours apart. At six hours after the third dose, the rats were anaesthetized with halothane, decapitated and tissues (cerebral cortex, mesenteric artery and left ventricle) were rapidly harvested, weighed, placed in iced perchloric acid (0.4 M), frozen in liquid nitrogen and stored at −70° C. until subsequent analysis. To quantify noradrenaline and dopamine concentrations, tissues were homogenized by brief sonication and centrifuged at 13,000 rpm for 30 minutes at 4° C. The supernatant, spiked with 3,4-dihydroxybenzylamine (internal standard), was assayed for noradrenaline and dopamine by HPLC using electrochemical detection.
# (§2) In vitro assay of selected enzymes and neurotransmitter receptors. The activity of 2a at eleven different enzymes was determined using established assays (PanLabs Inc, Foster City, Calif.). The affinity of 2a for thirteen selected receptors was determined by radioligand binding assays using standard filtration techniques and membrane preparations. Binding data were analyzed by iterative curve fitting to a four parameter logistic equation. Ki values were calculated using the Cheng-Prusoff equation.
# neutral endopeptidase = target: T1, neutral endopeptidase (Homo sapiens, UniProt P08473); test: Selected enzyme assay; assay type: biochemical
# T1 construct: PanLabs Inc (assay provider)
# T1 sequence (P08473 whole entry, species assumed): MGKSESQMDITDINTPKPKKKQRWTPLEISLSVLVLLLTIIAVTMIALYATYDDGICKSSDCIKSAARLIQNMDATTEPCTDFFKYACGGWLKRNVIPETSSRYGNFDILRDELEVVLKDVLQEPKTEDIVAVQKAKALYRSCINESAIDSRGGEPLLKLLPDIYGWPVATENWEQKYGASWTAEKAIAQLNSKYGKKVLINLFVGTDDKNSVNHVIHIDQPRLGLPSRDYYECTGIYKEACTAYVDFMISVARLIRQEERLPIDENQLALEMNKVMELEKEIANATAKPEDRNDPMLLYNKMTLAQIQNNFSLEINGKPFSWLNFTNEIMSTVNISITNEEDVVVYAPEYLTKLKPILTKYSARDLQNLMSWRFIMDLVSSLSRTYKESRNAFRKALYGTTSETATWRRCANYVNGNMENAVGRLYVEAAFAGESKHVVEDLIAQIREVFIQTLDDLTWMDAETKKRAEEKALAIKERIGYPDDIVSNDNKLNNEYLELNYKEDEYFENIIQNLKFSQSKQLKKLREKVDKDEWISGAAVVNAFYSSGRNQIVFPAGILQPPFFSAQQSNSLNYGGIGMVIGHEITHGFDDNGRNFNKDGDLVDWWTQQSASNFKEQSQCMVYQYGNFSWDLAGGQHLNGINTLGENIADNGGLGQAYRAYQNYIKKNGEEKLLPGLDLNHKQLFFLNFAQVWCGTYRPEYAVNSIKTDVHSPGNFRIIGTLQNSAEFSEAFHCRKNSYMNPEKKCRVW
# Experimental: as §1, §2
# protein kinase C = test: Selected enzyme assay; assay type: biochemical; conditions: b560 prints protein kinase (non-selective)
# Experimental: as §1, §2
compound,measurement,setting,value
"Cl.NCc1c[nH]c(=S)n1[C@H]1CCc2c(F)cc(F)cc2C1 [nepicastat, (S)-5-Aminomethyl-1-(5,7-difluoro-1,2,3,4-tetrahydronaphth-2-yl)-2,3-dihydro-2-thioxo-1H-imidazole hydrochloride]",heart rate and systolic blood pressure (tail cuff),[1],"did not alter heart rate, or systolic blood pressure"
same,aortic phenylephrine responsiveness,[2],restored phenylephrine responsiveness
same,duration of increase in dopamine/norepinephrine ratio,"[3]; 10 mg/kg oral, mesenteric artery",12 h
same,"dopamine vs vehicle, mesenteric artery","[3]; 10 mg/kg single oral, 1-24 h",significantly (p<0.05) higher than those of vehicle at the 2 and 6 hr harvest times
same,"dopamine/norepinephrine ratio vs vehicle, mesenteric artery","[3]; 10 mg/kg single oral, 1-24 h","significantly (p<0.05) greater than those of vehicle treated animals at the 1, 2, 4, 6 and 12 hour time points"
same,"norepinephrine vs vehicle, mesenteric artery","[3]; 10 mg/kg single oral, 1-24 h",significantly (p<0.05) lower than vehicle only at the 4 hr time point
same,duration of increase in dopamine/norepinephrine ratio,"[3]; 30 mg/kg oral, left ventricle",24 h
same,"norepinephrine levels vs vehicle, cortex",[4]; 2.0 and 6.2 mg/kg b.i.d.,not significantly (p>0.05) different
same,"norepinephrine levels vs vehicle, mesenteric artery",[4]; 2.0 and 6.2 mg/kg b.i.d.,significantly (p<0.05) lower
same,"norepinephrine levels vs vehicle, striatum",[4]; 2.0 and 6.2 mg/kg b.i.d.,marginally (p<0.10) lower
same,"dopamine/norepinephrine ratio vs vehicle, mesenteric artery",[4]; 2.0 and 6.2 mg/kg b.i.d.,significantly (p<0.05) higher
same,"dopamine/norepinephrine ratio vs vehicle, mesenteric artery","[4]; 2.0 and 6.2 mg/kg b.i.d., listed as 2a",significantly raised
same,"dopamine/norepinephrine ratio vs vehicle, cortex and striatum","[4]; 2.0 and 6.2 mg/kg b.i.d., listed as RS-25560-197, hydrochloride",not significantly (p>0.05) different
same,"dopamine levels vs vehicle, cortex, striatum and mesenteric artery",[4]; 2.0 or 6.2 mg/kg b.i.d.,not significantly (p>0.05) different
same,"renal blood flow, urine production, urinary sodium and potassium excretion",[5],did not lower renal blood flow or alter urine production or urinary excretion of sodium or potassium
same,mean arterial pressure,[5]; 3 hour period,decreased mean arterial pressure
same,"dose with significant increase in dopamine/norepinephrine ratio, left ventricle",[6],1.0 mg/kg
same,"dose with significant increase in dopamine/norepinephrine ratio, mesenteric artery",[6],3.0 mg/kg
same,"dose with significant increase in dopamine/norepinephrine ratio, cerebral cortex",[6]; only at this dose,100 mg/kg
same,IC50,[7],> 10 µM
same,IC50,neutral endopeptidase,> 10 µM
same,IC50,protein kinase C,> 10 µM
